# Reference: patent US20240409585A1, “MACROCYCLIC IMMUNOMODULATORS” (priority 2021, published 2024)
# Bridge positions count the residues as written; N and C are the ends. Square brackets hold non-standard residues; d marks the D form. Peptide text beside a SMILES is read from it. * marks the point of attachment. Bip = N[C@@H](Cc1ccc(-c2ccccc2)cc1)C(=O)O; Phe(3-Me) = Cc1cccc(C[C@H](N)C(=O)O)c1; 4Pal = N[C@@H](Cc1ccncc1)C(=O)O; Cha = N[C@@H](CC1CCCCC1)C(=O)O; Carboxymethyl = O=C(O)C*; NMeA = CN[C@@H](C)C(=O)O; Orn = NCCC[C@H](N)C(=O)O; Dab = NCC[C@H](N)C(=O)O; Dap = NC[C@H](N)C(=O)O
# Biological target: T1, PE-labeled human PD-L1-Ig binding to Jurkat cell line over-expressing human PD-1 (Jurkat-PD-1) (Homo sapiens, UniProt Q15116)
# T1 construct: expressed in transfected cells; host or cells: Jurkat
# T1 sequence (Q15116 25-288): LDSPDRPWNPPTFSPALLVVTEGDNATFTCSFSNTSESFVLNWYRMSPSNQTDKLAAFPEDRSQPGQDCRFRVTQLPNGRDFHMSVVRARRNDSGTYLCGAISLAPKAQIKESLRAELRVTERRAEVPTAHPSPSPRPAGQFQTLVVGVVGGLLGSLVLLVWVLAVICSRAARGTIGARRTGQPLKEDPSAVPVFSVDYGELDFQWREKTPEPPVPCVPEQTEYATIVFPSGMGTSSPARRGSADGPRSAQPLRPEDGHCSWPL
# Experiment: Jurkat-PD-1 Cell Binding High-Content Screening Assay (CBA): Method 1
# Settings: Jurkat-hPD-1 cells, PE-labeled PD-L1-Ig 20 nM final; read-out: Jurkat HPDL1 PD1 IC50 (uM) (Method 1)
row,Compound,IC50 [µM]
1,Cc1cccc(C[C@@H]2NC(=O)[C@H](CC(=O)O)NC(=O)[C@H](Cc3ccc(OCC(=O)O)cc3)NC(=O)[C@H](CN)NC(=O)CSC[C@@H](C(N)=O)NC(=O)[C@H]([C@@H](C)O)NC(=O)[C@H](C(C)C)NC(=O)[C@H](CC3CCCCC3)NC(=O)[C@H](CCN)NC(=O)[C@@H](CC(C)C)NC(=O)[C@H](C)N(C)C(=O)[C@H](Cc3ccc(OCC(=O)O)cc3)NC(=O)[C@H](Cc3ccc(-c4ccccc4)cc3)NC(=O)[C@H](Cc3ccc(OCC(=O)O)cc3)NC2=O)c1 [Compound 1650] ({CH2CO}-[Dap]Y(Carboxymethyl)D[Phe(3-Me)]Y(Carboxymethyl)[Bip]Y(Carboxymethyl)[NMeA][dL][Dab][Cha]VTC-NH2; thioether N-14),0.08
2,Cc1cccc(C[C@@H]2NC(=O)[C@H](CC(=O)O)NC(=O)[C@H](Cc3ccc(OCC(=O)O)cc3)NC(=O)[C@H](CN)NC(=O)CSC[C@@H](C(N)=O)NC(=O)[C@H](CCC(=O)O)NC(=O)[C@H](C(C)C)NC(=O)[C@H](CC3CCCCC3)NC(=O)[C@H](CCN)NC(=O)[C@@H](CC(C)C)NC(=O)[C@H](C)N(C)C(=O)[C@H](Cc3ccc(OCC(=O)O)cc3)NC(=O)[C@H](Cc3ccc(-c4ccccc4)cc3)NC(=O)[C@H](Cc3ccc(OCC(=O)O)cc3)NC2=O)c1 [Compound 1651] ({CH2CO}-[Dap]Y(Carboxymethyl)D[Phe(3-Me)]Y(Carboxymethyl)[Bip]Y(Carboxymethyl)[NMeA][dL][Dab][Cha]VEC-NH2; thioether N-14),0.1
3,Cc1cccc(C[C@@H]2NC(=O)[C@H](CC(=O)O)NC(=O)[C@H](Cc3ccc(OCC(=O)O)cc3)NC(=O)[C@H](Cc3ccc(OCC(=O)O)cc3)NC(=O)CSC[C@@H](C(N)=O)NC(=O)[C@H](CCCN)NC(=O)[C@H](C(C)C)NC(=O)[C@H](CC3CCCCC3)NC(=O)[C@H](CCN)NC(=O)[C@@H](CC(C)C)NC(=O)[C@H](C)N(C)C(=O)[C@H](Cc3ccc(OCC(=O)O)cc3)NC(=O)[C@H](Cc3ccc(-c4ccccc4)cc3)NC(=O)[C@H](Cc3ccc(OCC(=O)O)cc3)NC2=O)c1 [Compound 1652] ({CH2CO}-Y(Carboxymethyl)Y(Carboxymethyl)D[Phe(3-Me)]Y(Carboxymethyl)[Bip]Y(Carboxymethyl)[NMeA][dL][Dab][Cha]V[Orn]C-NH2; thioether N-14),0.03
4,Cc1cccc(C[C@@H]2NC(=O)[C@H](CC(=O)O)NC(=O)[C@H](Cc3ccc(OCC(=O)O)cc3)NC(=O)[C@H](Cc3ccc(OCC(=O)O)cc3)NC(=O)CSC[C@@H](C(N)=O)NC(=O)[C@H]([C@@H](C)O)NC(=O)[C@H](C(C)C)NC(=O)[C@H](CC3CCCCC3)NC(=O)[C@H](CCN)NC(=O)[C@@H](CC(C)C)NC(=O)[C@H](C)N(C)C(=O)[C@H](Cc3ccc(OCC(=O)O)cc3)NC(=O)[C@H](Cc3ccc(-c4ccccc4)cc3)NC(=O)[C@H](Cc3ccc(OCC(=O)O)cc3)NC2=O)c1 [Compound 1656] ({CH2CO}-Y(Carboxymethyl)Y(Carboxymethyl)D[Phe(3-Me)]Y(Carboxymethyl)[Bip]Y(Carboxymethyl)[NMeA][dL][Dab][Cha]VTC-NH2; thioether N-14),0.03
5,Cc1cccc(C[C@@H]2NC(=O)[C@H](CC(=O)O)NC(=O)[C@H](Cc3ccc(OCC(=O)O)cc3)NC(=O)[C@H](Cc3ccc(OCC(=O)O)cc3)NC(=O)CSC[C@@H](C(N)=O)NC(=O)[C@H](CCC(=O)O)NC(=O)[C@H](C(C)C)NC(=O)[C@H](CC3CCCCC3)NC(=O)[C@H](CCN)NC(=O)[C@@H](CC(C)C)NC(=O)[C@H](C)N(C)C(=O)[C@H](Cc3ccc(OCC(=O)O)cc3)NC(=O)[C@H](Cc3ccc(-c4ccccc4)cc3)NC(=O)[C@H](Cc3ccc(OCC(=O)O)cc3)NC2=O)c1 [Compound 1657] ({CH2CO}-Y(Carboxymethyl)Y(Carboxymethyl)D[Phe(3-Me)]Y(Carboxymethyl)[Bip]Y(Carboxymethyl)[NMeA][dL][Dab][Cha]VEC-NH2; thioether N-14),0.05
6,Cc1cccc(C[C@@H]2NC(=O)[C@H](CC(=O)O)NC(=O)[C@H](Cc3ccc(OCC(=O)O)cc3)NC(=O)[C@H](Cc3ccncc3)NC(=O)CSC[C@@H](C(N)=O)NC(=O)[C@H](CC(=O)O)NC(=O)[C@H](C(C)C)NC(=O)[C@H](CC3CCCCC3)NC(=O)[C@H](CCN)NC(=O)[C@@H](CC(C)C)NC(=O)[C@H](C)N(C)C(=O)[C@H](Cc3ccc(OCC(=O)O)cc3)NC(=O)[C@H](Cc3ccc(-c4ccccc4)cc3)NC(=O)[C@H](Cc3ccc(OCC(=O)O)cc3)NC2=O)c1 [Compound 1658] ({CH2CO}-[4Pal]Y(Carboxymethyl)D[Phe(3-Me)]Y(Carboxymethyl)[Bip]Y(Carboxymethyl)[NMeA][dL][Dab][Cha]VDC-NH2; thioether N-14),0.03

# Other lines, results leading:
row,IC50 [µM],Compound
1,0.03,Cc1cccc(C[C@@H]2NC(=O)[C@H](CC(=O)O)NC(=O)[C@H](Cc3ccc(OCC(=O)O)cc3)NC(=O)[C@H](Cc3ccc(OCC(=O)O)cc3)NC(=O)CSC[C@@H](C(N)=O)NC(=O)[C@H](CC(N)=O)NC(=O)[C@H](C(C)C)NC(=O)[C@H](CC3CCCCC3)NC(=O)[C@H](CCN)NC(=O)[C@@H](CC(C)C)NC(=O)[C@H](C)N(C)C(=O)[C@H](Cc3ccc(OCC(=O)O)cc3)NC(=O)[C@H](Cc3ccc(-c4ccccc4)cc3)NC(=O)[C@H](Cc3ccc(OCC(=O)O)cc3)NC2=O)c1 [Compound 1653] ({CH2CO}-Y(Carboxymethyl)Y(Carboxymethyl)D[Phe(3-Me)]Y(Carboxymethyl)[Bip]Y(Carboxymethyl)[NMeA][dL][Dab][Cha]VNC-NH2; thioether N-14)
2,0.08,Cc1cccc(C[C@@H]2NC(=O)[C@H](CC(=O)O)NC(=O)[C@H](Cc3ccc(OCC(=O)O)cc3)NC(=O)[C@H](Cc3ccc(OCC(=O)O)cc3)NC(=O)CSC[C@@H](C(N)=O)NC(=O)[C@H](CC(=O)O)NC(=O)[C@H](C(C)C)NC(=O)[C@H](CC3CCCCC3)NC(=O)[C@H](CCN)NC(=O)[C@@H](CC(C)C)NC(=O)[C@H](C)N(C)C(=O)[C@H](Cc3ccc(OCC(=O)O)cc3)NC(=O)[C@H](Cc3ccc(-c4ccccc4)cc3)NC(=O)[C@H](Cc3ccc(OCC(=O)O)cc3)NC2=O)c1 [Compound 1654] ({CH2CO}-Y(Carboxymethyl)Y(Carboxymethyl)D[Phe(3-Me)]Y(Carboxymethyl)[Bip]Y(Carboxymethyl)[NMeA][dL][Dab][Cha]VDC-NH2; thioether N-14)
3,0.03,Cc1cccc(C[C@@H]2NC(=O)[C@H](CC(=O)O)NC(=O)[C@H](Cc3ccc(OCC(=O)O)cc3)NC(=O)[C@H](Cc3ccc(OCC(=O)O)cc3)NC(=O)CSC[C@@H](C(N)=O)NC(=O)[C@H](CCC(N)=O)NC(=O)[C@H](C(C)C)NC(=O)[C@H](CC3CCCCC3)NC(=O)[C@H](CCN)NC(=O)[C@@H](CC(C)C)NC(=O)[C@H](C)N(C)C(=O)[C@H](Cc3ccc(OCC(=O)O)cc3)NC(=O)[C@H](Cc3ccc(-c4ccccc4)cc3)NC(=O)[C@H](Cc3ccc(OCC(=O)O)cc3)NC2=O)c1 [Compound 1655] ({CH2CO}-Y(Carboxymethyl)Y(Carboxymethyl)D[Phe(3-Me)]Y(Carboxymethyl)[Bip]Y(Carboxymethyl)[NMeA][dL][Dab][Cha]VQC-NH2; thioether N-14)
